# From ChEMBL document CHEMBL3885881, “DrugMatrix”
# Species: Rattus norvegicus
# Assay: DrugMatrix - Regimen: Daily Repeat
# Type: toxicity, organism-based, Sprague-Dawley
# Design: regimen Daily Repeat, gender Male, age 6-8 weeks
# Settings: in vivo, po, route oral GAVAGE, […]; for ABSOLUTE BASOPHIL / BASOPHIL / EOSINOPHIL / ERYTHROCYTE COUNT / HEMATOCRIT / HEMOGLOBIN / LEUKOCYTE COUNT / LYMPHOCYTE / MEAN CORPUSCULAR HEMOGLOBIN / MEAN CORPUSCULAR HEMOGLOBIN CONCENTRATION / MEAN CORPUSCULAR VOLUME / MONOCYTE / NEUTROPHIL / PLATELET COUNT: tissue Blood
# [1] = 30 mg/kg, 120 h, tissue Plasma, dose level Low, time 5 day
# [2] = 35 mg/kg, 72 h, dose level Low, time 3 day
# [3] = 35 mg/kg, 72 h, tissue Plasma, dose level Low, time 3 day
# [4] = 35 mg/kg, 120 h, dose level Low, time 5 day
# [5] = 35 mg/kg, 120 h, tissue Plasma, dose level Low, time 5 day
# [6] = 400 mg/kg, 72 h, dose level High, time 3 day
# [7] = 400 mg/kg, 72 h, tissue Plasma, dose level High, time 3 day
# [8] = 400 mg/kg, 120 h, dose level High, time 5 day
# [9] = 400 mg/kg, 120 h, tissue Plasma, dose level High, time 5 day
smiles,measurement,setting,value
Cc1ccc(-c2cc(C(F)(F)F)nn2-c2ccc(S(N)(=O)=O)cc2)cc1 [CELECOXIB],ALBUMIN,[1],3.93 G/DL
same,ALKALINE PHOSPHATASE,[1],354.33 u/L
same,ASPARTATE AMINOTRANSFERASE,[1],82.67 u/L
same,BLOOD UREA NITROGEN,[1],10.67 mg/dL
same,CARBON DIOXIDE,[1],25 mmol/L
same,CHLORIDE,[1],101 MEQ/L
same,CHOLESTEROL,[1],56.33 mg/dL
same,CREATINE PHOSPHOKINASE,[1],247 u/L
same,CREATININE,[1],0.12 mg/dL
same,GLUCOSE,[1],191.67 mg/dL
same,LACTATE DEHYDROGENASE,[1],107 u/L
same,LIPASE,[1],6.33 u/L
same,PHOSPHORUS,[1],12.27 mg/dL
same,POTASSIUM,[1],5.29 MEQ/L
same,SODIUM,[1],142.9 MEQ/L
same,TOTAL BILIRUBIN,[1],0.2 mg/dL
same,TOTAL PROTEIN,[1],5.8 G/DL
same,URIC ACID,[1],1.67 mg/dL
same,ABSOLUTE BASOPHIL,[2],23.3 cells/µL
same,BASOPHIL,[2],0.2%
same,EOSINOPHIL,[2],0.57%
same,ERYTHROCYTE COUNT,[2],6.93 x10E6/uL
same,HEMATOCRIT,[2],43.8%
same,HEMOGLOBIN,[2],14.23 G/DL
same,LEUKOCYTE COUNT,[2],11.06 x10E3/uL
same,LYMPHOCYTE,[2],78.9%
same,MEAN CORPUSCULAR HEMOGLOBIN,[2],20.57 pg
same,MEAN CORPUSCULAR HEMOGLOBIN CONCENTRATION,[2],32.53 G/DL
same,MEAN CORPUSCULAR VOLUME,[2],63.27 fL
same,MONOCYTE,[2],2.2%
same,NEUTROPHIL,[2],16.8%
same,PLATELET COUNT,[2],1233.67 x10E3/uL
same,ALANINE AMINOTRANSFERASE,[3],48 u/L
same,ALBUMIN,[3],3.53 G/DL
same,ALKALINE PHOSPHATASE,[3],409.67 u/L
same,ASPARTATE AMINOTRANSFERASE,[3],65 u/L
same,BLOOD UREA NITROGEN,[3],10.33 mg/dL
same,CHLORIDE,[3],105.67 MEQ/L
same,CHOLESTEROL,[3],68.67 mg/dL
same,CREATINE PHOSPHOKINASE,[3],192.67 u/L
same,CREATININE,[3],0.37 mg/dL
same,GLUCOSE,[3],180 mg/dL
same,PHOSPHORUS,[3],12.47 mg/dL
same,POTASSIUM,[3],6.47 MEQ/L
same,SODIUM,[3],146.67 MEQ/L
same,TOTAL BILIRUBIN,[3],0.43 mg/dL
same,TOTAL PROTEIN,[3],5.63 G/DL
same,ABSOLUTE BASOPHIL,[4],56.7 cells/µL
same,BASOPHIL,[4],0.5%
same,EOSINOPHIL,[4],0.17%
same,ERYTHROCYTE COUNT,[4],6.92 x10E6/uL
same,HEMATOCRIT,[4],43.47%
same,HEMOGLOBIN,[4],14.1 G/DL
same,LEUKOCYTE COUNT,[4],12.56 x10E3/uL
same,LYMPHOCYTE,[4],82.3%
same,MEAN CORPUSCULAR HEMOGLOBIN,[4],20.4 pg
same,MEAN CORPUSCULAR HEMOGLOBIN CONCENTRATION,[4],32.43 G/DL
same,MEAN CORPUSCULAR VOLUME,[4],62.8 fL
same,MONOCYTE,[4],1.9%
same,NEUTROPHIL,[4],13.9%
same,PLATELET COUNT,[4],1178.33 x10E3/uL
same,ALANINE AMINOTRANSFERASE,[5],42 u/L
same,ALBUMIN,[5],3.57 G/DL
same,ALKALINE PHOSPHATASE,[5],324.67 u/L
same,ASPARTATE AMINOTRANSFERASE,[5],63.67 u/L
same,BLOOD UREA NITROGEN,[5],9.67 mg/dL
same,CHLORIDE,[5],103 MEQ/L
same,CHOLESTEROL,[5],76.67 mg/dL
same,CREATINE PHOSPHOKINASE,[5],179.33 u/L
same,CREATININE,[5],0.37 mg/dL
same,GLUCOSE,[5],187.33 mg/dL
same,PHOSPHORUS,[5],11.8 mg/dL
same,POTASSIUM,[5],6.73 MEQ/L
same,SODIUM,[5],146 MEQ/L
same,TOTAL BILIRUBIN,[5],0.33 mg/dL
same,TOTAL PROTEIN,[5],5.9 G/DL
same,ABSOLUTE BASOPHIL,[6],30 cells/µL
same,BASOPHIL,[6],0.27%
same,EOSINOPHIL,[6],0.6%
same,ERYTHROCYTE COUNT,[6],6.71 x10E6/uL
same,HEMATOCRIT,[6],42.57%
same,HEMOGLOBIN,[6],14.27 G/DL
same,LEUKOCYTE COUNT,[6],12.22 x10E3/uL
same,LYMPHOCYTE,[6],70.53%
same,MEAN CORPUSCULAR HEMOGLOBIN,[6],21.27 pg
same,MEAN CORPUSCULAR HEMOGLOBIN CONCENTRATION,[6],33.53 G/DL
same,MEAN CORPUSCULAR VOLUME,[6],63.47 fL
same,MONOCYTE,[6],3.27%
same,NEUTROPHIL,[6],24.33%
same,PLATELET COUNT,[6],1571.33 x10E3/uL
same,ALANINE AMINOTRANSFERASE,[7],62 u/L
same,ALBUMIN,[7],3.4 G/DL
same,ALKALINE PHOSPHATASE,[7],437.67 u/L
same,ASPARTATE AMINOTRANSFERASE,[7],74.67 u/L
same,BLOOD UREA NITROGEN,[7],9.33 mg/dL
same,CHLORIDE,[7],106.67 MEQ/L
same,CHOLESTEROL,[7],88.33 mg/dL
same,CREATINE PHOSPHOKINASE,[7],191.67 u/L
same,CREATININE,[7],0.33 mg/dL
same,GLUCOSE,[7],177.33 mg/dL
same,PHOSPHORUS,[7],12.6 mg/dL
same,POTASSIUM,[7],6.63 MEQ/L
same,SODIUM,[7],145 MEQ/L
same,TOTAL BILIRUBIN,[7],0.33 mg/dL
same,TOTAL PROTEIN,[7],5.53 G/DL
same,ABSOLUTE BASOPHIL,[8],190 cells/µL
same,BASOPHIL,[8],1.28%
same,EOSINOPHIL,[8],0.3%
same,ERYTHROCYTE COUNT,[8],6.61 x10E6/uL
same,HEMATOCRIT,[8],42.7%
same,HEMOGLOBIN,[8],13.26 G/DL
same,LEUKOCYTE COUNT,[8],18.19 x10E3/uL
same,LYMPHOCYTE,[8],68.98%
same,MEAN CORPUSCULAR HEMOGLOBIN,[8],20.16 pg
same,MEAN CORPUSCULAR HEMOGLOBIN CONCENTRATION,[8],31.14 G/DL
same,MEAN CORPUSCULAR VOLUME,[8],64.7 fL
same,MONOCYTE,[8],2.54%
same,NEUTROPHIL,[8],25.24%
same,PLATELET COUNT,[8],1512.2 x10E3/uL
same,ALANINE AMINOTRANSFERASE,[9],41.6 u/L
same,ALBUMIN,[9],3.44 G/DL
same,ALKALINE PHOSPHATASE,[9],451.2 u/L
same,ASPARTATE AMINOTRANSFERASE,[9],64.8 u/L
same,BLOOD UREA NITROGEN,[9],11.2 mg/dL
same,CHLORIDE,[9],105.8 MEQ/L
same,CHOLESTEROL,[9],91.6 mg/dL
same,CREATINE PHOSPHOKINASE,[9],166.4 u/L
same,CREATININE,[9],0.34 mg/dL
same,GLUCOSE,[9],185.8 mg/dL
same,PHOSPHORUS,[9],12.94 mg/dL
same,POTASSIUM,[9],7.1 MEQ/L
same,SODIUM,[9],151 MEQ/L
same,TOTAL BILIRUBIN,[9],0.2 mg/dL
same,TOTAL PROTEIN,[9],5.9 G/DL
